Source: ChEMBL document CHEMBL3044672, “N9- and N7-(Chloromethyl Phenymethyl)Chloropurine Derivatives from , '-Dichloroxylenes: Synthesis and Anticancer Activity” (2005)

Tests used:
Assay type in all cases: functional
SK-OV-3 = assay: Cytotoxicity against Homo sapiens (human) SKOV3 cells after 48 hr by sulforhodamine B assay; settings: SK-OV-3, 48 h
OVCAR-5 = assay: Cytotoxicity against Homo sapiens (human) OVCAR5 cells after 48 hr by sulforhodamine B assay; settings: OVCAR-5, 48 h
OVCAR-4 = assay: Cytotoxicity against Homo sapiens (human) OVCAR4 cells after 48 hr by sulforhodamine B assay; settings: OVCAR-4, 48 h
IGROV-1 = assay: Cytotoxicity against Homo sapiens (human) IGROV1 cells after 48 hr by sulforhodamine B assay; settings: IGROV-1, 48 h
OVCAR-3 = assay: Cytotoxicity against Homo sapiens (human) OVCAR3 cells after 48 hr by sulforhodamine B assay; settings: OVCAR-3, 48 h
SK-MEL-5 = assay: Cytotoxicity against Homo sapiens (human) SK-MEL-5 cells after 48 hr by sulforhodamine B assay; settings: SK-MEL-5, 48 h
SK-MEL-2 = assay: Cytotoxicity against Homo sapiens (human) SK-MEL-2 cells after 48 hr by sulforhodamine B assay; settings: SK-MEL-2, 48 h
SNB-75 = assay: Cytotoxicity against Homo sapiens (human) SNB75 cells after 48 hr by sulforhodamine B assay; settings: SNB-75, 48 h
T47D = assay: Cytotoxicity against Homo sapiens (human) T47D cells after 48 hr by sulforhodamine B assay
MDA-MB-435 = assay: Cytotoxicity against Homo sapiens (human) MDA-MB-435 cells after 48 hr by sulforhodamine B assay; settings: MDA-MB-435, 48 h
Hs-578T = assay: Cytotoxicity against Homo sapiens (human) Hs 578T cells after 48 hr by sulforhodamine B assay
MDA-MB-231 = assay: Cytotoxicity against Homo sapiens (human) MDA-MB-231 cells after 48 hr by sulforhodamine B assay; settings: MDA-MB-231, 48 h
DU-145 = assay: Cytotoxicity against Homo sapiens (human) DU145 cells after 48 hr by sulforhodamine B assay; settings: DU-145, 48 h
MCF7 = assay: Cytotoxicity against Homo sapiens (human) MCF7 cells after 48 hr by sulforhodamine B assay; settings: MCF7, 48 h
PC-3 = assay: Cytotoxicity against Homo sapiens (human) PC3 cells after 48 hr by sulforhodamine B assay; settings: PC-3, 48 h
TK-10 = assay: Cytotoxicity against Homo sapiens (human) TK10 cells after 48 hr by sulforhodamine B assay; settings: TK-10, 48 h
RXF 393 = assay: Cytotoxicity against Homo sapiens (human) RXF393 cells after 48 hr by sulforhodamine B assay; settings: RXF 393, 48 h
SF-295 = assay: Cytotoxicity against Homo sapiens (human) SF295 cells after 48 hr by sulforhodamine B assay; settings: SF-295, 48 h
SW-620 = assay: Cytotoxicity against Homo sapiens (human) SW620 cells after 48 hr by sulforhodamine B assay; settings: SW-620, 48 h
KM12 = assay: Cytotoxicity against Homo sapiens (human) KM12 cells after 48 hr by sulforhodamine B assay; settings: KM12, 48 h
HT-29 = assay: Cytotoxicity against Homo sapiens (human) HT-29 cells after 48 hr by sulforhodamine B assay; settings: HT-29, 48 h
HCT-116 = assay: Cytotoxicity against Homo sapiens (human) HCT116 cells after 48 hr by sulforhodamine B assay; settings: HCT-116, 48 h
HCC 2998 = assay: Cytotoxicity against Homo sapiens (human) HCC2998 cells after 48 hr by sulforhodamine B assay; settings: HCC 2998, 48 h
COLO 205 = assay: Cytotoxicity against Homo sapiens (human) COLO205 cells after 48 hr by sulforhodamine B assay; settings: COLO 205, 48 h
NCI-H460 = assay: Cytotoxicity against Homo sapiens (human) NCI-H460 cells after 48 hr by sulforhodamine B assay; settings: NCI-H460, 48 h
NCI-H322M = assay: Cytotoxicity against Homo sapiens (human) NCI-H322M cells after 48 hr by sulforhodamine B assay
HOP-62 = assay: Cytotoxicity against Homo sapiens (human) HOP62 cells after 48 hr by sulforhodamine B assay; settings: HOP-62, 48 h
EKVX = assay: Cytotoxicity against Homo sapiens (human) EKVX cells after 48 hr by sulforhodamine B assay
RPMI-8226 = assay: Cytotoxicity against Homo sapiens (human) RPMI8226 cells after 48 hr by sulforhodamine B assay; settings: RPMI-8226, 48 h
MOLT-4 = assay: Cytotoxicity against Homo sapiens (human) MOLT4 cells after 48 hr by sulforhodamine B assay; settings: MOLT-4, 48 h
SF-268 = assay: Cytotoxicity against Homo sapiens (human) SF268 cells assessed as cell growth at 10^-4 M after 48 hr by […] assay; settings: SF-268, 48 h, read-out: Activity
[1] = read-out: LC50 (the source's name)

For `ClCc1ccccc1Cn1cnc2c(Cl)ncnc21`, the GI50 (SK-OV-3) was 4.17 µM, the LC50 (SK-OV-3) was 85.1 µM and the TGI (SK-OV-3) was 15.8 µM. It also gave a GI50 (OVCAR-5) of 2.45 µM, a TGI (OVCAR-5) of 6.6 µM and a CC50 (OVCAR-5; [1]) of 25.7 µM. The GI50 (OVCAR-4) was 3.38 µM, the LC50 (concentration killing 50% of cells) (OVCAR-4) was 45.7 µM and the TGI (OVCAR-4) was 12.3 µM. It also gave a GI50 (IGROV-1) of 3.16 µM, an LC50 (IGROV-1) of 55 µM and a TGI (IGROV-1) of 8.91 µM. It also gave a GI50 (OVCAR-3) of 1.41 µM, an LC50 (OVCAR-3) of 8.91 µM and a TGI (OVCAR-3) of 3.54 µM. It also gave a GI50 (SK-MEL-5) of 1.41 µM, an LC50 (SK-MEL-5) of 5.88 µM and a TGI (SK-MEL-5) of 2.88 µM. The GI50 (SK-MEL-2) was 2.75 µM, the LC50 (concentration killing 50% of cells) (SK-MEL-2) was > 100 µM and the TGI (SK-MEL-2) was 18.2 µM. The GI50 (SNB-75) was 2.88 µM, the TGI (SNB-75) was 11 µM and the CC50 (SNB-75; [1]) was 39.8 µM. For the same molecule, the GI50 (T47D) was 17.8 µM, the LC50 (T47D) was > 100 µM and the TGI (T47D) was 61.7 µM. For the same molecule, the GI50 (MDA-MB-435) was 3.02 µM, the LC50 (MDA-MB-435) was 36.3 µM and the TGI (MDA-MB-435) was 9.55 µM. It also gave a GI50 (Hs-578T) of 2.29 µM, an LC50 (Hs-578T) of 56.2 µM and a TGI (Hs-578T) of 6.6 µM. The GI50 (MDA-MB-231) was 3.02 µM, the LC50 (MDA-MB-231) was 45.7 µM and the TGI (MDA-MB-231) was 7.41 µM. The GI50 (DU-145) was 5.62 µM, the LC50 (DU-145) was > 100 µM and the TGI (DU-145) was 34.7 µM. The GI50 (MCF7) was 11 µM, the LC50 (concentration killing 50% of cells) (MCF7) was > 100 µM and the TGI (MCF7) was > 100 µM. For the same molecule, the GI50 (PC-3) was 3.02 µM, the LC50 (concentration causing 50% cell kill) (PC-3) was 53.7 µM and the TGI (PC-3) was 10.5 µM. For the same molecule, the GI50 (TK-10) was 22.9 µM, the TGI (TK-10) was 46.8 µM and the CC50 (TK-10; [1]) was 95.5 µM. For the same molecule, the GI50 (RXF 393) was 0.44 µM, the TGI (RXF 393) was 2.34 µM and the CC50 (RXF 393; [1]) was 7.41 µM. For the same molecule, the GI50 (SF-295) was 10.5 µM, the TGI (SF-295) was 23.4 µM and the CC50 (SF-295; [1]) was 51.3 µM. For the same molecule, the GI50 (SW-620) was 1.77 µM, the TGI (SW-620) was 5.01 µM and the CC50 (SW-620; [1]) was 26.3 µM. It also gave a GI50 (KM12) of 16.6 µM, a TGI (KM12) of 33.1 µM and a CC50 (KM12; [1]) of 66.1 µM. For the same molecule, the GI50 (HT-29) was 3.54 µM, the TGI (HT-29) was > 100 µM and the CC50 (HT-29; [1]) was > 100 µM. For the same molecule, the GI50 (HCT-116) was 1.9 µM, the TGI (HCT-116) was 3.71 µM and the CC50 (HCT-116; [1]) was 7.08 µM. For the same molecule, the GI50 (HCC 2998) was 1.66 µM, the TGI (HCC 2998) was 3.54 µM and the CC50 (HCC 2998; [1]) was 7.41 µM. The GI50 (COLO 205) was 3.89 µM, the TGI (COLO 205) was > 100 µM and the CC50 (COLO 205; [1]) was > 100 µM. For the same molecule, the GI50 (NCI-H460) was 15.5 µM, the TGI (NCI-H460) was 44.7 µM and the CC50 (NCI-H460; [1]) was > 100 µM. The GI50 (NCI-H322M) was 3.98 µM, the TGI (NCI-H322M) was 13.8 µM and the CC50 (NCI-H322M; [1]) was 43.6 µM. It also gave a GI50 (HOP-62) of 2.51 µM, a TGI (HOP-62) of 6.02 µM and a CC50 (HOP-62; [1]) of 19.9 µM. The GI50 (EKVX) was 3.09 µM, the TGI (EKVX) was 11 µM and the CC50 (EKVX; [1]) was 37.1 µM. The GI50 (RPMI-8226) was 14.1 µM, the TGI (RPMI-8226) was 40.7 µM and the CC50 (RPMI-8226; [1]) was > 100 µM. The GI50 (MOLT-4) was 1.58 µM, the TGI (MOLT-4) was 5.24 µM and the CC50 (MOLT-4; [1]) was > 100 µM. The growth at 100 µM (SF-268) was 0%.
